The results in this text go back to patent US12708106B2 (priority 2019, dated 2026).

The subject of this experiment is Eimeria and Clostridium perfringens. In kind it is in vivo, male broilers.
[1] abbreviates: T4: 10 ppm (Enradin 8%), Eimeria + Clostridium challenge, mean ± SD.

For Enramycin, under setting [1], the “BWG—Body Weight Gain 1-7 D” value is 90.95 ± 5.11 b g and the “FCR (Feed Conversion Ratio) 1-7 D” value was found to be 1.568 ± 0.123. For the setting “T4: 10 ppm, challenged”, the “BWG—Body Weight Gain 1-14 D” value was found to be 413.37 ± 12.89 b g, the “BWG—Body Weight Gain 1-21 D” value is listed as 926.22 ± 23.58 b g, the “BWG—Body Weight Gain 1-28 D” value came to 1595.5 ± 42.62 b g and the “FCR (Feed Conversion Ratio) 1-14 D” value is 1.070 ± 0.049. For the same substance, where the note is “T4: 10 ppm, challenged”, the “FCR (Feed Conversion Ratio) 1-21 D” value stood at 1.255 ± 0.036 ab and the “FCR (Feed Conversion Ratio) 1-28 D” value is 1.228 ± 0.024 ab.
